Assay results: patent publication US20080261994A1, “CYCLOPROPANE COMPOUNDS AND PHARMACEUTICAL USE THEREOF” (Japan Tobacco Inc., priority 2003, published 2008)
Like-named read-outs stand apart in the source and are kept apart here.

Legend:
aggrecanase-1 = target: T1, aggrecanase-1 (Homo sapiens, UniProt O75173); experiment: Aggrecanase-1 inhibitory action (Particle Assay, GAG release from aggrecan-containing polyacrylamide particles); format: biochemical
T1 sequence (O75173 213-837): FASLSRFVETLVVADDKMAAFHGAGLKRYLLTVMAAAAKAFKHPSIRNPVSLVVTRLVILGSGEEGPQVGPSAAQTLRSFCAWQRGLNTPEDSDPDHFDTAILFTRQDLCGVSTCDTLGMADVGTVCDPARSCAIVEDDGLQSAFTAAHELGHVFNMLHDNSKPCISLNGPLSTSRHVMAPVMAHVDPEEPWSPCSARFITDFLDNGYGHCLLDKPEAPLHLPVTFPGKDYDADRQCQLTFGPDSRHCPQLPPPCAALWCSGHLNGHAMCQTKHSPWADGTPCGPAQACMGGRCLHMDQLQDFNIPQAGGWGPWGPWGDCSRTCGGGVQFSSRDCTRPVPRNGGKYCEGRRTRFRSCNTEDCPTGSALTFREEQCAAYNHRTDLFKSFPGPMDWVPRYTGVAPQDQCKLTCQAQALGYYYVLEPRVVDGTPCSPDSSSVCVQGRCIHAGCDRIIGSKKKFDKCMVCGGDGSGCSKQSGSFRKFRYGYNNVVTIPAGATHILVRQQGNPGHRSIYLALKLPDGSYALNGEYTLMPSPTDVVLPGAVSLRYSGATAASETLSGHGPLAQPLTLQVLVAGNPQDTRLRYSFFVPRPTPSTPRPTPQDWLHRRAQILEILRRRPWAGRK
Method: Particle Assay was used for determination of aggrecanase activity.
(§1) The enzyme and substrate were diluted with Tris-HCl buffer, and test compounds were diluted with dimethyl sulfoxide (DMSO).
Test compounds and the enzyme were added into 96-well plate, and polyacrylamide particles containing aggrecan were added as a substrate and the mixture was incubated at 37° C. for 15 hr.
After incubation, the supernatant was transferred to another plate, and mixed with 1,9-dimethylmethylene blue. The absorbence at 595 nm was measured to quantify the amount of glycosaminoglycan (GAG) released in the reaction supernatant. Whale chondroitin sulfate was used as the standard of GAG. The inhibitory activity of the compound in each well (%) was calculated based on the values of enzyme-free well and inhibitor-free well. The inhibitory activity of the compound was represented as […] (μM).

MMP-1 = target: T2, MMP-1 (Homo sapiens, UniProt P03956); experiment: MMP-1 inhibitory action (Type I collagen Activity Measurement kit, FITC-labeled collagen type I); format: biochemical
T2 sequence (P03956 100-469): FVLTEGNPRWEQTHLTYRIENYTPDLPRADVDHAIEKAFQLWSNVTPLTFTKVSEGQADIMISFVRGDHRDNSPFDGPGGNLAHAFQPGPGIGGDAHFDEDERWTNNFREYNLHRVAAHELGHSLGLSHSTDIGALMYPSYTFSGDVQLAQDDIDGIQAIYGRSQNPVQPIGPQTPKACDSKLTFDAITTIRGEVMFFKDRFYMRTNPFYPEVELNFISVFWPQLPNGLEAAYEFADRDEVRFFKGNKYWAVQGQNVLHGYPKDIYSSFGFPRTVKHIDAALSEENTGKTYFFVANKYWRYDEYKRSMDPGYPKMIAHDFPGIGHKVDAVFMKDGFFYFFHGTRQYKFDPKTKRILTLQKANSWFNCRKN
Method: For MMP-1 Assay, Type I collagen Activity Measurement kit (YAGAI YU-72013) modified to a 96-well plate format was used.
The principle of the kit is based on the property of collagen that becomes soluble in ethanol after being cleaved by MMP-1.
as §1
The enzyme and test compounds were added into 96-well plate, and fluorescein isothiocianate (FITC)-labeled collagen type I was added as a substrate and the mixture was incubated at 37° C. for 3 hr.
The reaction was terminated by addition of Tris-HCl buffer containing ethanol. After centrifugation, the supernatant containing denatured substrate was transferred to another 96-well plate. The collagenase activity of MMP-1 was determined by measuring FITC fluorescence intensity (excitation wavelength 485 nm, emission wavelength 530 nm) of each well. The inhibitory activity of the compound in each well (%) was calculated based on the values of enzyme-free well and inhibitor-free well. The inhibitory activity of the compound was represented as IC50 (μM).

[1] = aggrecanase-1 inhibitory action, read-out: IC50 AG1 (Experimental Example 1)
[2] = MMP-1 inhibitory action, FITC-labeled collagen type I, 37° C. for 3 hr, read-out: IC50 MMP1 (Experimental Example 2)
[3] = Experimental Example 1, read-out: IC50 AG1

SMILES | IC50 (aggrecanase-1; [1]) | IC50 (MMP-1; [2]) | IC50 (aggrecanase-1; [3]) | IC50 (MMP-1; Experimental Example 2, read-out: IC50 MMP1)
NC(=O)COc1cccc(C2CC2(NS(=O)(=O)c2ccc(-c3ccc(Cl)cc3)cc2)C(=O)O)c1 (stereo not shown) [Example 1-117] | < 0.1 µM | ≥ 1 µM | – | –
CN(C)c1cccc(C2CC2(NS(=O)(=O)c2ccc(-c3ccc(Cl)cc3)cc2)C(=O)O)c1 (stereo not shown) [Example 1-21] | < 1 µM | ≥ 1 µM | – | –
COc1ccccc1C1CC1(NS(=O)(=O)c1ccc(-c2ccc(Cl)cc2)s1)C(=O)O (stereo not shown) [Example 1-4] | < 0.1 µM | ≥ 1 µM | – | –
O=C1Nc2ccccc2C2CC12NS(=O)(=O)c1ccc(-c2ccc(Cl)cc2)s1 (stereo not shown) [Example 2-218] | ≥ 1 µM | ≥ 10 µM | – | –
O=C(O)C1(NS(=O)(=O)N2CCc3nc(-c4ccccc4)ncc3C2)CC1c1ccccc1 (stereo not shown) [Example 2-127] | ≥ 10 µM | ≥ 10 µM | – | –
O=C(O)C1(NS(=O)(=O)c2ccc(-c3ccc(Cl)cc3)s2)CC1c1ccccc1Br (stereo not shown) [Example 2-167] | < 1 µM | ≥ 10 µM | – | –
CC(C)NC(=O)COc1ccccc1C1CC1(NS(=O)(=O)c1ccc(-c2ccc(Cl)cc2)s1)C(=O)O (stereo not shown) [Example 1-147] | < 1 µM | ≥ 10 µM | – | –
COc1ccccc1C1CC1(NS(=O)(=O)c1ccc(-c2ccc(Cl)cc2)cc1)C(=O)O (stereo not shown) [Example 1-13] | < 1 µM | ≥ 1 µM | – | –
NC(=O)Nc1cccc(C2CC2(NS(=O)(=O)c2ccc(-c3ccc(Cl)cc3)s2)C(=O)O)c1 (stereo not shown) [Example 1-135] | < 1 µM | ≥ 1 µM | – | –
CC1[C@](C)(c2ccccc2)[C@]1(NS(=O)(=O)c1ccc(-c2cc(C(C)(F)F)on2)s1)C(=O)O (stereo partly shown) [Example 2-625] | – | – | < 0.1 µM | –
O=C(O)[C@]1(NS(=O)(=O)c2ccc(-c3ccc(Cl)cc3Cl)s2)C[C@@H]1c1ccccc1 [Example 1-125] | < 0.1 µM | ≥ 10 µM | – | –
O=C(O)C1(NS(=O)(=O)c2ccc(-c3ccc(Cl)cc3)cc2)CC1c1ccccc1Oc1ccccc1 (stereo not shown) [Example 1-14] | < 1 µM | ≥ 10 µM | – | –
O=C(O)[C@]1(NS(=O)(=O)c2ccc(-c3cc4ccccc4o3)s2)C[C@@H]1c1ccccc1 [Example 2-122] | ≥ 1 µM | < 1 µM | – | –
O=C(O)C1(NS(=O)(=O)c2ccc(-c3ccc(Cl)cc3)cc2)CC1c1cccc(NCc2ccccc2)c1 (stereo not shown) [Example 1-43] | < 1 µM | ≥ 1 µM | – | –
O=C(O)[C@]1(NS(=O)(=O)c2cnc(-c3ccc(Cl)cc3)s2)C[C@@H]1c1ccccc1 [Example 1-100] | < 1 µM | ≥ 1 µM | – | –
O=C(O)C1(NS(=O)(=O)c2ccc(-c3ccc(Br)cc3)cc2)CC1c1ccccc1 (stereo not shown) [Example 1-31] | < 1 µM | ≥ 10 µM | – | –
O=C(O)[C@]1(NS(=O)(=O)c2ccc(-c3ccc(Cl)cc3)cc2)C[C@@H]1c1ccccc1 [Example 1, (1S,2R)-1-(4′-Chlorobiphenyl-4-sulfonylamino)-2-phenylcyclopropanecarboxylic acid] | < 1 µM | ≥ 1 µM | – | –
CC(=O)Nc1ccc(-c2ccc(S(=O)(=O)N[C@@]3(C(=O)O)C[C@]3(C)c3ccccc3)s2)cc1 [Example 2-402] | – | – | ≥ 1 µM | ≥ 10 µM
C[C@]1(c2ccccc2)C[C@@]1(NS(=O)(=O)c1ccc(-c2cccc(OCCO)c2)s1)C(=O)O [Example 2-575] | – | – | ≥ 1 µM | –
CN(C)C(=O)COc1cccc(C2CC2(NS(=O)(=O)c2ccc(-c3ccc(Cl)cc3)cc2)C(=O)O)c1 (stereo not shown) [Example 1-114] | < 1 µM | ≥ 1 µM | – | –
O=C1O[C@H]([C@H]2C[C@@]2(NS(=O)(=O)c2ccc(-c3ccc(Cl)cc3)s2)C(=O)O)CN1Cc1ccccc1 [Example 2-138] | ≥ 10 µM | – | – | –
O=C(O)C1(NS(=O)(=O)c2ccc(OCc3ccc(Cl)cc3Cl)cc2)CC1c1ccccc1 (stereo not shown) [Example 1-65] | – | ≥ 10 µM | – | –
COc1cccc([C@@]2(C)C[C@@]2(NS(=O)(=O)c2ccc(-c3cc(C(F)(F)F)on3)s2)C(=O)O)c1 [Example 2-624] | – | – | < 0.1 µM | –
COc1ccc(-c2ccc(S(=O)(=O)N[C@@]3(C(=O)O)C[C@]3(C)c3ccccc3)s2)cc1CO [Example 2-592] | – | – | ≥ 1 µM | –
C[C@]1(c2ccccc2)C[C@@]1(NS(=O)(=O)c1ccc(-c2cccc(OCCCO)c2)s1)C(=O)O [Example 2-576] | – | – | ≥ 1 µM | –
